According to patent US20230065522A1 (Memorial Sloan Kettering Cancer Center, priority 2015, published 2023):

Tests used:
[1] = cited from earlier work
U251 cells = test: MTT assay; type: cell-based; conditions: U251 glioblastoma cells
FaDu cells = test: flow cytometry of PARPi-fl uptake with and without irradiation; type: cell-based, human
Method: (§1) First, cells were irradiated with 0, 2, 4 and 10 Gy in 25 cm^2 culture flasks using the J.L. Shepherd Cesium irradiator (J.L. Shepherd, San Fernando, Calif.) at a dose rate of 174 cGy/min. […] Following a wash with PBS, cells were trypsinized, counted, and portions of 0.5×10^6 cells of the single cell suspension were aliquoted into 1.5 ml Eppendorf tubes (Eppendorf, Hamburg, Germany). For each time point and irradiation dose, samples were either left unstained, were stained with PARPi-fl or olaparib/PARPi-fl. […] For staining, cells were washed with 1 ml FACS buffer (1% BSA (w/v) in PBS). […] Next, cells were centrifuged, the supernatant was aspirated and cells were re-suspended in 0.5 ml FACS buffer and transferred to 5 ml round bottom flow cytometry tubes (BD Biosciences, Bedford, Mass.) through a 40 μm strainer to remove doublets and left on ice until measurement in the flow cytometer (LSR® II, BD Biosciences, Bedford, Mass.). For each measurement, 10,000 events were counted. Raw data were processed in FlowJo software in order to calculate the changes in PARPi-fl uptake after irradiation. Cell clumps and debris were eliminated using the corresponding gates (forward and side scatter) for the unstained cell population. The gates were applied to all stained samples. PARPi-fl fluorescence was imaged in the FITC channel against side scatter (area).

Ca127 cells = test: as above; type: cell-based, human
Method: as §1

U87 cells = test: MTT assay; type: cell-based; conditions: U87 glioblastoma cells
subcutaneous FaDu tumors = test: ex vivo epifluorescence imaging of PARPi-fl uptake, subcutaneous FaDu xenografts and normal tissues
Method: Animals were sacrificed 90 minutes post-injection and tumors, tongues, trachea, and muscle were excised and imaged using epifluorescence imaging (IVIS Spectrum, PerkinElmer, Waltham, Mass.). […] This measure carries the unit [p/s/cm^2/sr]/[μW/cm^2] and is defined as the number of photons per second leaving a square centimeter of tissue and radiating into a solid angle of one steradian (sr).

[2] = pharmacokinetic profile of ^18F-PARPi in a tumor-free mouse; type: in vivo
Method: Bone uptake amounts for 6% ID/g. While low, imaging in larger mammals typically reduces bone-uptake further due to slower metabolic degradation.
The blood half-life, serum stability, and metabolic stability of ^18F-PARPi was determined. Blood half-lives were determined after the injection of ˜15 μCi of the ^18F-labeled species into C57BL/6J (B6) mice and blood (5-10 μL) drawn at different time points via saphenous vein bleeds. FIGS. 13A-13B show an image acquired at 60 minutes. The drawn blood was both counted as well as analyzed using a HPLC-MS equipped with both a fluorescence detector as well as a parallel radiodetector. Organs were homogenized. Next, the bimodal imaging agent was extracted and radioactive/fluorescent metabolites were analyzed using HPLC. All major organs were weighed, and their […] activity was measured using a scintillation counter. The injected dose per gram tissue (% ID/g) was determined.

FaDu tumors = test: fluorescence endomicroscopy of excised FaDu tumors and control tissues; type: in vivo, mice; conditions: 90 minutes after PARPi-fl injection
Method: FaDu xenografts were imaged with a fluorescence endoscope that is available for both clinical and preclinical imaging (Cellvizio, Mauna Kea Technologies, Paris, France). It provides cellular to subcellular resolution and has a flexible confocal microprobe that enables versatile imaging. […] The microprobe was slowly moved over the tumor, tongue, or muscle, while a real-time video was recorded using a 488 nm excitation beam. The videos were converted to grayscale and the intensity was measured in 10 frames per video using ImageJ 1.49e Software. Topical application of PARPi-fl

PARP1 = target: T1, PARP1 (Homo sapiens, UniProt P09874); test: correlation of PARPi-fl fluorescence with PARP1 antibody staining in FaDu tumor sections; type: in vivo; conditions: nuclear area, 222 pairs
T1 construct: endogenous in cells; host or cells: FaDu (human hypopharyngeal SCC, ATCC) subcutaneous xenografts in athymic nude mice
T1 sequence (P09874 whole entry, species assumed): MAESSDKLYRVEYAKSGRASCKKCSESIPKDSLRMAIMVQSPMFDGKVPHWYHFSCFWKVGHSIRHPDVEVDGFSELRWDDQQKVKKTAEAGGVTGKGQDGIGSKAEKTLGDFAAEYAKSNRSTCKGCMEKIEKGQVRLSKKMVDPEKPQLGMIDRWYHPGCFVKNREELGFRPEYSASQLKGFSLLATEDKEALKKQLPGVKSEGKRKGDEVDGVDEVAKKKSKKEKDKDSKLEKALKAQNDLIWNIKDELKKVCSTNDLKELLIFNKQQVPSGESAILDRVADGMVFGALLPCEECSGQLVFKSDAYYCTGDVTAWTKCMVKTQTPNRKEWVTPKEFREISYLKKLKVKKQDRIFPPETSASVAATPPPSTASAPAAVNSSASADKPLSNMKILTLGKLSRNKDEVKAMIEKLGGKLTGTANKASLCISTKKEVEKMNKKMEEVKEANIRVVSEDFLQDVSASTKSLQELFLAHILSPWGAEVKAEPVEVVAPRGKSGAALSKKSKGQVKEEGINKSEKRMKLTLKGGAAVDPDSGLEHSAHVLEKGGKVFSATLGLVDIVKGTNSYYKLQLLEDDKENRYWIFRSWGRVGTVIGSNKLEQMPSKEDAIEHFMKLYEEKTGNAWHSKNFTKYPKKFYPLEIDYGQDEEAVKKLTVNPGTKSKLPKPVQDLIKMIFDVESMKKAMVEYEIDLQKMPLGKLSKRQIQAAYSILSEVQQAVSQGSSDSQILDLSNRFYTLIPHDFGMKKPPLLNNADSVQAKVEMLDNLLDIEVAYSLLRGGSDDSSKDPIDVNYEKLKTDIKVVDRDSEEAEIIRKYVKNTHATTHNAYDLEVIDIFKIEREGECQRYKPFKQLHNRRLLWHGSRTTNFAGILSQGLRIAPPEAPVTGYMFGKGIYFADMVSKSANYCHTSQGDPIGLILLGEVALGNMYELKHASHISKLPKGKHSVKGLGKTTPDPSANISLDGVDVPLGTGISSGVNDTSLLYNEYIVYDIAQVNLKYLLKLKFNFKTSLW
Method: 222 xy pairs pooled from n=3 tumor sections.
Next, 10 μm cryosections were fixed in 4% paraformaldehyde for 8 minutes, followed by blocking with 3% (v/v) goat serum (Sigma-Aldrich, St. Louis, Mo.) in PBS. Antibodies were diluted in 1% (w/v) BSA and 0.3% (v/v) Triton X-100 in PBS. Anti-PARP1 primary antibody (sc-7150, Santa Cruz Biotechnology, Santa Cruz, Calif.) was incubated overnight at 4° C. (1 μg/ml), followed by three 10-minute washes with PBS and incubation with secondary AlexaFluor® 680 goat anti-rabbit antibody (A21076, Molecular Probes, Eugene, Oreg.) for 1 hour at 4° C. (2 μg/ml). After another 5-minute PBS wash, sections were mounted with Mowiol® (Sigma-Aldrich, St. Louis, Mo.) containing Hoechst 33342 DNA Stain (Sigma-Aldrich, St. Louis, Mo.). […] Incubating sections with either a nonspecific rabbit IgG or PBS instead of primary antibody confirmed binding specificity.

[3] = clearance from circulation and metabolic stability after IV injection; type: in vivo, mice
[4] = test system: orthotopic tongue tumors (FaDutdTomato); test: topical application of PARPi-fl on orthotopic tongue tumors, confocal microscopy; type: in vivo, mice; conditions: one minute application
Method: For topical application, the tongues were dipped into a well of a 96-well plate filled with the respective incubation solution. […] This was followed by cleaning of the tongue with an alcohol pad to remove residual unbound compound. The animals were imaged in the IVIS Spectrum before and after PARPi-fl application using the appropriate filter sets for detection of PARPi-fl and the tdTomato fluorescent protein. Spectral unmixing was used to separate the signals for tdTomato, PARPi-fl and autofluorescence. The tdTomato fluorescent protein allows in vivo localization of the tumor. For comparability, all images were scaled to the same maximum radiant efficiency. Imaging was repeated with sections of the excised tongues after cryofixation. […] Adjacent sections were H&E stained for morphological evaluation.

tumor cells = test: in vivo confocal imaging of PARPi-fl in tumor cells (cell population drug kinetics)
Excerpt: Concentration rapidly increases after a bolus dose followed by a slow decay (top).

[5] = toxicity after local administration on the oral mucosa; type: in vivo; conditions: mice
Method: […]. Mice received blood draws after 24 h and 48 h post administration, and were then sacrificed to receive a full necropsy.

[6] = non-irradiated, olaparib co-incubated with PARPi-fl (50-fold excess)
[7] = 48 hours after 10 Gy irradiation
[8] = oral mucosa, 20 μl of 400 μM solution
[9] = topical oral mucosa, 29 nmol in 50 μL, 10 min

Structure (SMILES): O=C(c1cc(Cc2n[nH]c(=O)c3ccccc23)ccc1F)N1CCN(C(=O)C2CC2)CC1 [olaparib, 4-[(3-[(4-cyclopropyl-carbonyl)piperazin-4-yl]carbonyl)-4-fluorophenyl]methyl (2H)phthalazin-1-one]
- excreted ([1]; ^14C-labeled olaparib, within 7 days): More than 86%
- terminal half-life ([1]; after a 400 mg dose): 11.9 h
- tolerability ([1]; approved dose and schedule, 400 mg orally twice daily): well tolerated
- apparent volume of distribution ([1]; oral administration): more than 150 L
- time of peak plasma concentrations after dosing ([1]; oral administration): 1 to 3 h
- IC50 (U251 cells; Homo sapiens, U-251): 8 µM
- effect on PARPi-fl uptake (FaDu cells; [6]): almost completely suppressed
- effect on PARPi-fl uptake (Ca127 cells; [6]): almost completely suppressed
- IC50 (U87 cells; Homo sapiens, U-87 MG): 28 µM
- inhibition of PARPi-fl tumor uptake by xenografts (subcutaneous FaDu tumors; coinjection with PARPi-fl): almost completely inhibited
- reduction of the fluorescent signal of the tumor (subcutaneous FaDu tumors; olaparib injected before PARPi-fl (50-fold excess, 30 min prior)): 60%

Structure (SMILES): CC1=CC(C)=[N+]2C1=Cc1ccc(CCC(=O)N3CCN(C(=O)c4cc(Cc5n[nH]c(=O)c6ccccc56)ccc4F)CC3)n1[B-]2(F)[18F] (stereo not shown) [^18F-PARPi]
- bone uptake [2]: 6 % ID/g

Structure (SMILES): Cc1cc(C)n2c1C=C1C=CC(CCC(=O)N3CCN(C(=O)c4cc(Cc5n[nH]c(=O)c6ccccc56)ccc4F)CC3)=[N+]1[B-]2(F)F [PARPi-fl]
- average signal intensity (FaDu tumors; FaDu tumors): 35.4±8.6 AU
- average signal intensity (FaDu tumors; thigh muscle): 15.1±2.4 AU
- average signal intensity (FaDu tumors; tongue): 18.5±6.9 AU
- IC50 (U251 cells): 5.5 µM
- co-localization with PARP1 antibody staining, Rcoloc. (PARP1): 0.986
- metabolites ([3]; mice, 30 min post injection): less than 50%
- β half-life ([3]; mice, IV injection, clearance from circulation): 1.47 h
- time of peak uptake in subcutaneous tumors ([3]; post injection): 30 min
- penetration depth into tumor tissue [4]: up to 300 μm
- PARPi-fl signal compared to non-irradiated cells (FaDu cells; [7]): 145.4±7.3%
- PARPi-fl signal compared to non-irradiated cells (Ca127 cells; [7]): 136.0±16.6%
- average cellular drug concentration (tumor cells; tumor cells in vivo after bolus dose, FIG. 9B): 1.2 µM
- cells targeted within tumor tissue (tumor cells; uptake within tumor tissue): greater than 99.8%
- concentration in targeted tumor cells (tumor cells; uptake within tumor tissue): 1900 ± 500 nM
- tissue permeability (tissue permeability): 4.7±2.5 μm/s
- IC50 (U87 cells): 24 µM
- changes in clinical chemical and hematologic parameters [5, 8]: no changes
- local irritation [5, 8]: no local irritation
- ALP [5, 9]: 90 ± 18 IU/L
- ALT (SGPT) [5, 9]: 31 ± 6 IU/L
- AST (SGOT) [5, 9]: 67 ± 4 IU/L
- Albumin [5, 9]: 2.7 ± 0.2 g/dL
- BA % [5, 9]: 0.2 ± 0.3%
- BASOPHILS [5, 9]: 0.01 ± 0.02 K/μL
- BUN [5, 9]: 28 ± 2 mg/dL
- Calcium [5, 9]: 9.6 ± 0.2 mg/dL
- Chloride [5, 9]: 114 ± 1 mEq/L
- Cholesterol [5, 9]: 86 ± 8 mg/dL
- Creatinine [5, 9]: 0.24 ± 0.01 mg/dL
- EO % [5, 9]: 5.5 ± 1.0%
- EOSINOPHIL [5, 9]: 0.64 ± 0.55 K/μL
- GGT [5, 9]: 0 IU/L
- Globulin [5, 9]: 2.3 ± 0.7 g/dL
- Glucose [5, 9]: 229 ± 54 mg/dL
- HB [5, 9]: 15.1 ± 0.9 g/dL
- HCT [5, 9]: 50.4 ± 2.9%
- LY % [5, 9]: 57.0 ± 10.9%
- LYMPHOCYT [5, 9]: 3.34 ± 1.07 K/μL
- MCH [5, 9]: 14.7 ± 0.4 pg
- MCHC [5, 9]: 30.0 ± 0.1 g/dL
- MCV [5, 9]: 49.3 ± 1.2 fL
- MO % [5, 9]: 1.9 ± 0.8%
- MONOCYTE [5, 9]: 0.10 ± 0.04 K/μL
- MPV [5, 9]: 6.1 ± 0.2 fL
- NE % [5, 9]: 29.5 ± 4.0%
- NEUTROPHI [5, 9]: 1.69 ± 0.04 K/μL
- PLT [5, 9]: 1077 ± 171 K/μL
- Phosphorus [5, 9]: 6 ± 1 mg/dL
- Potassium [5, 9]: 3.8 ± 0.7 mEq/L
- RBC [5, 9]: 10.24 ± 0.62 M/μL
- RDW [5, 9]: 23.4 ± 0.6%
- Sodium [5, 9]: 151 ± 3 mEq/L
- Total Bilirubin [5, 9]: 0.1 ± 0.0 mg/dL
- Total Protein [5, 9]: 4.9 ± 0.8 g/dL
- WBC [5, 9]: 5.78 ± 0.90 K/μL
